Drawing on ChEMBL document CHEMBL1151757, “Synthesis, radiosynthesis, and biological evaluation of fluorine-18-labeled 2beta-carbo(fluoroalkoxy)-3beta-(3'-((Z)-2-haloethenyl)phenyl)nortropanes: candidate radioligands for in vivo imaging of the serotonin transporter with positron emission tomography” (J Med Chem, 2008), this text covers Ratio and Drug uptake for two molecules.

Data set [1] can be described thus: Ratio of drug uptake in caudate to cerebellum in awake rhesus monkey after 13.5 mins postinjection. In kind it is ADME, organism-based, Macaca mulatta. The note with it: in vivo, 0.225 h.
Data set [2] can be described thus: Drug uptake in awake rhesus monkey brain cerebellum after 0.75 mins postinjection. In kind it is ADME, organism-based, Macaca mulatta. The note with it: in vivo, 45 s.
Data set [3] is described as follows: Drug uptake in awake rhesus monkey brain midbrain after 0.75 mins postinjection. It is filed as ADME, organism-based, Macaca mulatta. The note with it: in vivo, 45 s.
Data set [4] in a line: Drug uptake in awake rhesus monkey brain caudate after 2.25 mins postinjection. It is filed as ADME, organism-based, Macaca mulatta, Caudate nucleus. The settings on record: in vivo, 135 s.
Data set [5] is described as follows: Ratio of drug uptake in putamen to cerebellum in awake rhesus monkey after 0.3 mins postinjection. It is filed as ADME, organism-based, Macaca mulatta. The settings on record: in vivo, 0.005 h.
Data set [6] is described as follows: Ratio of drug uptake in thalamus to cerebellum in awake rhesus monkey after 115 mins postinjection. The settings on record: in vivo. It is filed as ADME, organism-based, Macaca mulatta.

For the molecule `O=C(OCC[18F])C1C2CCC(CC1c1cccc(/C=C\I)c1)N2` (stereo unspecified), in data set [1], the Ratio is reported as 1.1. For the same molecule, the Drug uptake is 0 in data set [2], 0 in data set [3] and 0.03 in data set [4].
In the case of `O=C(OCC[18F])C1C2CCC(CC1c1ccc(/C=C\I)cc1)N2` (stereo unspecified), the values for the Ratio in data set [5] and in data set [6] were 5.1 and 2.6, respectively.
